Read-outs that look alike come from different tables or passages of the source.
Columns and labels:
[1] = test system: Klebsiella pneumoniae expressing VIM-1 (IHMA599644); experiment: Antibiotic potentiation activity: synergistic concentration (MITC95) with imipenem, OD600 growth; type: cell-based
In short: (§1)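 Clinical MBL-producing strains (E. coli NDM-1, S. marcescens IMP-1, K. pneumoniae VIM-1) from overnight plates were diluted 1:100 into 1.1×CAMHB. Compound was tested with imipenem at 4 μg/ml (optionally 1 μg/ml) or without it. After 22–24 h at 35 °C, growth was read as OD600.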

[2] = test system: Escherichia coli expressing NDM-1 (CLB30016); experiment: as above; type: cell-based
In short: as §1

[3] = test system: Serratia marcescens expressing IMP-1 (CL5741); experiment: as above; type: cell-based
In short: as §1

[4] = target: VIM-1 (Pseudomonas aeruginosa (strain ATCC 15692 / DSM 22644 / CIP 104116 / JCM 14847 / LMG 12228 / 1C / PRS 101 / PAO1), UniProt A0A0F7KYQ8); experiment: Enzyme activity: determination of IC50, fluorescence assay with CCF2-FA substrate (VIM-1); type: biochemical
[5] = target: NDM-1 (Klebsiella pneumoniae, UniProt C7C422); experiment: biochemical; type: biochemical
Chain of NDM-1 (C7C422 whole entry, looked up, species assumed): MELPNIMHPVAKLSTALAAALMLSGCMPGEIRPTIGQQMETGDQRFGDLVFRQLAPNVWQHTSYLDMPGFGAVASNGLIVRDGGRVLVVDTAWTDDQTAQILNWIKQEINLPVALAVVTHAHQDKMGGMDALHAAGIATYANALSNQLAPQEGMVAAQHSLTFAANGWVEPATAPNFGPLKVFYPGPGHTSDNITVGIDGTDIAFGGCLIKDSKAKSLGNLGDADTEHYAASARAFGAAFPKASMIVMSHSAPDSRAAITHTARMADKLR

[6] = target: IMP-1 (Serratia marcescens, UniProt P52699); experiment: biochemical; type: biochemical; details: read-out: IMP-1 IC50
Chain of IMP-1 (P52699 whole entry, looked up): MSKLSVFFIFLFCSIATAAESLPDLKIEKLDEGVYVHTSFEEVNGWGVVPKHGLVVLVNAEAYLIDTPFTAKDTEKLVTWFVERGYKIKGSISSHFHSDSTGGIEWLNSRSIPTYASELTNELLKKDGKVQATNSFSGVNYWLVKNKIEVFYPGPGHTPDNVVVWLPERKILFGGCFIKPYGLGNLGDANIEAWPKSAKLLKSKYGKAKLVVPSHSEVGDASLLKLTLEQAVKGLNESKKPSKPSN

[7] = Klebsiella pneumoniae IHMA599644 (VIM-1), 95% growth inhibition
[8] = (CLB30016, NDM-1), 95% growth inhibition
[9] = Serratia marcescens CL5741 (IMP-1), 95% growth inhibition
[10] = VIM-1 enzyme, CCF2-FA substrate, read-out: VIM-1 IC50
[11] = NDM-1 enzyme, CCF2-FA substrate, read-out: NDM-1 IC50
[12] = IMP-1 enzyme, CCF2-FA substrate
[13] = Klebsiella pneumoniae expressing VIM-1 (IHMA599644), 95% growth inhibition
[14] = Escherichia coli expressing NDM-1 (CLB30016), 95% growth inhibition
[15] = Serratia marcescens expressing IMP-1 (CL5741), 95% growth inhibition
[16] = VIM-1 enzyme, CCF2-FA fluorescence assay, read-out: VIM-1 IC50
[17] = NDM-1 enzyme, CCF2-FA fluorescence assay, read-out: NDM-1 IC50
[18] = IMP-1 enzyme, CCF2-FA fluorescence assay
[19] = IHMA599644 (VIM-1), 95% inhibition of bacterial growth
[20] = CLB30016 (NDM-1), 95% inhibition of bacterial growth
[21] = CL5741 (IMP-1), 95% inhibition of bacterial growth
[22] = fluorescence assay with CCF2-FA substrate, read-out: VIM-1 IC50
[23] = fluorescence assay with CCF2-FA substrate, read-out: NDM-1 IC50
[24] = fluorescence assay with CCF2-FA substrate
[25] = VIM-1 IC50, VIM-1 enzyme, CCF2-FA substrate
[26] = concentration giving 95% inhibition of bacterial growth

Row | Compound | Klebsiella pneumoniae MITC95 [1, 7] | Escherichia coli MITC95 [2, 8] | Serratia marcescens MITC95 [3, 9] | IC50 [4, 10] | IC50 [5, 11] | IC50 [6, 12] | other results
1 | CC1(O)CCN(c2ccc(C(F)(F)F)c(S(N)(=O)=O)c2-c2nnn[nH]2)CC1 [Example 653, 3-(4-hydroxy-4-methypiperidin-1-yl)-2-(1H-tetrazol-5-yl)-6-(trifluoromethyl)benzenesulfonamide] | 6.25 µM | 1.563 µM | 0.3906 µM | 4.5 nM | 2.82 nM | 4.82 nM | 
2 | Nc1ccc2cc(-c3cccc(S(N)(=O)=O)c3-c3nnn[nH]3)ccc2n1 [Example 403, 3-(2-amino-6-quinolyl)-2-(1H-tetrazol-5-yl)benzenesulfonamide] |  |  |  |  |  |  | Klebsiella pneumoniae MITC95 [1, 13]: 6.25 µM; Escherichia coli MITC95 [2, 14]: 0.125 µM; Serratia marcescens MITC95 [3, 15]: 4.688 µM; IC50 [4, 16]: 15.4 nM; IC50 [5, 17]: 2.34 nM; IC50 [6, 18]: 184 nM
3 | NC1Cc2cccc(-c3ccc(C(F)(F)F)c(S(N)(=O)=O)c3-c3nnn[nH]3)c2C1 (stereo not drawn) [Example 836, 3-(2-aminoindan-4-yl)-2-(1H-tetrazol-5-yl)-6-(trifluoromethyl)benzenesulfonamide] |  |  |  |  |  |  | Klebsiella pneumoniae MITC95 [1, 19]: 1.563 µM; Escherichia coli MITC95 [2, 20]: 2.344 µM; Serratia marcescens MITC95 [3, 21]: 4.688 µM; IC50 [4, 22]: 2.39 nM; IC50 [5, 23]: 54.9 nM; IC50 [6, 24]: 134 nM
4 | NS(=O)(=O)c1cccc(-c2cnc3ccccn23)c1-c1nnn[nH]1 [Example 404, 3-imidazo[1,2-a]pyridin-3-yl-2-(1H-tetrazol-5-yl)benzenesulfonamide] |  |  |  |  |  |  | Klebsiella pneumoniae MITC95 [1, 13]: 2.563 µM; Escherichia coli MITC95 [2, 14]: 0.0625 µM; Serratia marcescens MITC95 [3, 15]: 1.708 µM; IC50 [4, 16]: 5.41 nM; IC50 [5, 17]: 0.817 nM; IC50 [6, 18]: 71.4 nM
5 | CN(C)CCNc1nc2c(-c3cccc(S(N)(=O)=O)c3-c3nn[nH]n3)cccc2s1 [Example 640, 3-[2-[2-(dimethylamino)ethylami-no]-1,3-benzothiazol-4-yl]-2-(2H-tetrazol-5-yl)benzenesulfonamide] | 100 µM | 1.563 µM | 100 µM | 9.84 nM | 0.855 nM | 194 nM | 
6 | NCc1ccc(-c2ccc(CC3CCNCC3)c(S(N)(=O)=O)c2-c2nn[nH]n2)cc1 [Example 593, 4′-(aminomethyl)-4-(piperidin-4-ylmethyl)-2-(2H-tetrazol-5-yl)biphenyl-3-sulfonamide] | 3.125 µM | 1.563 µM | 6.25 µM | 31.6 nM | 38.2 nM | 273 nM | 
7 | N=C(N)N1CC(c2ccc(-c3ccc(C(F)(F)F)c(S(N)(=O)=O)c3-c3nn[nH]n3)cc2)C1 [Example 434, 3-(3′-sulfamoyl-2′-(2H-tetrazol-5-yl)-4′-(trifluoromethyl)-[1,1′-biphenyl]-4-yl)azetidine-1-carboximidamide] |  |  |  |  |  |  | Klebsiella pneumoniae MITC95 [1, 13]: 0.7656 µM; Escherichia coli MITC95 [2, 14]: 0.543 µM; Serratia marcescens MITC95 [3, 15]: 0.09375 µM; IC50 [4, 16]: 0.175 nM; IC50 [5, 17]: 1.78 nM; IC50 [6, 18]: 1.85 nM
8 | NC[C@H]1CC[C@H](Cc2ccc(-c3ccc(C4CCNC4)cc3)c(-c3nnn[nH]3)c2S(N)(=O)=O)CC1 (stereo partly drawn) [Example 586, 4-(((1r,4r)-4-(aminomethyl)cyclohexyl)methyl)-4′-(pyrrolidin-3-yl)-2-(1H-tetrazol-5-yl)-[1,1′-biphenyl]-3-sulfonamide] | 1.563 µM | 0.7813 µM | 1.563 µM | 1.16 nM | 2.34 nM | 7.14 nM | 
9 | Nc1nc2nccc(-c3ccc(C(F)(F)F)c(S(N)(=O)=O)c3-c3nnn[nH]3)c2[nH]1 [Example 570, 3-(2-amino-1H-imidazo[4,5-b]pyridin-7-yl)-2-(1H-tetrazol-5-yl)-6-(trifluoromethyl)benzenesulfonamide] | 6.25 µM | 3.125 µM | 6.25 µM | 0.49 nM | 0.33 nM | 4.06 nM | 
10 | NS(=O)(=O)c1cccc(-c2ccc(N3CCC(CO)C3)nc2)c1-c1nnn[nH]1 (stereo not drawn) [Example 622, 3-[6-[3-(hydroxymethyl)pyrrolidin-1-yl]-3-pyridyl]-2-(1H-tetrazol-5-yl)benzenesulfonamide] | >200 µM | 0.9766 µM | 6.25 µM | 142 nM | 4.39 nM | 85.6 nM | 
11 | NS(=O)(=O)c1cccc(-c2cnc3cnccn23)c1-c1nnn[nH]1 [Example 651, 3-imidazo[1,2-a]pyrazin-3-yl-2-(1H-tetrazol-5-yl)benzenesulfonamide] | 6.25 µM | 1.172 µM | 37.5 µM |  | 9.85 nM | 900 nM | IC50 [4, 25]: 40.7 nM
12 | NC(=O)Cc1ccc(-c2ccc(C(F)(F)F)c(S(N)(=O)=O)c2-c2nn[nH]n2)cc1 [Example 448, 2-(3′-sulfamoyl-2′-(2H-tetrazol-5-yl)-4′-(trifluoromethyl)-[1,1′-biphenyl]-4-yl)acetamide] |  |  |  |  |  |  | Klebsiella pneumoniae MITC95 [1, 13]: 6.25 µM; Escherichia coli MITC95 [2, 14]: 3.125 µM; Serratia marcescens MITC95 [3, 15]: 0.1953 µM; IC50 [4, 16]: 0.962 nM; IC50 [5, 17]: 2.1 nM; IC50 [6, 18]: 2.17 nM
13 | NS(=O)(=O)c1c(C(F)(F)F)ccc(N2CCCC(CCCO)C2)c1-c1nnn[nH]1 (stereo not drawn) [Example 769, 3-[3-(3-hydroxypropyl)piperidin-1-yl]-2-(1H-tetrazol-5-yl)-6-(trifluoromethyl) benzenesulfonamide] |  |  |  |  |  |  | Klebsiella pneumoniae MITC95 [1, 19]: 50 µM; Escherichia coli MITC95 [2, 20]: 100 µM; Serratia marcescens MITC95 [3, 21]: 25 µM; IC50 [4, 22]: 0.998 nM; IC50 [5, 23]: 7.48 nM; IC50 [6, 24]: 11.4 nM
14 | NS(=O)(=O)c1cccc(-c2cc(F)cc(F)c2)c1-c1nnn[nH]1 [Example 129, 3′,5′-difluoro-2-(1H-tetrazol-5-yl)-[1,1′-biphenyl]-3-sulfonamide] |  |  |  |  |  |  | Klebsiella pneumoniae expressing VIM-1 (IHMA 599644) MITC95 [1, 26]: 12.5 µM; Escherichia coli expressing NDM-1 (CLB 30016) MITC95 [2, 26]: 0.7813 µM; Serratia marcescens expressing IMP-1 (CL5741) MITC95 [3, 26]: 9.375 µM; IC50 ([4]; VIM-1 IC50, fluorescence assay with CCF2-FA substrate): 37.9 nM; IC50 [5, 23]: 3.71 nM; IC50 [6, 24]: 176 nM
15 | NC1CCCc2ccc(-c3ccc(C(F)(F)F)c(S(N)(=O)=O)c3-c3nnn[nH]3)cc21 (stereo not drawn) [Example 731, 3-(8-amino-5,6,7,8-tetrahydronaphthalen-2-yl)-2-(1H-tetrazol-5-yl)-6-(trifluoromethyl)benzenesulfon-amide] | 50 µM | 25 µM | 50 µM |  | 61.3 nM | 117 nM | IC50 [4, 25]: 22.1 nM
16 | NS(=O)(=O)c1c(C(F)(F)F)ccc(-c2cccc(C3CCNC3)c2)c1-c1nnn[nH]1 (stereo not drawn) [Example 722, 3′-pyrrolidin-3-yl-2-(1H-tetrazol-5-yl)-4-(trifluoromethyl)biphenyl-3-sulfonamide] | 6.25 µM | 12.5 µM | 25 µM | 1.46 nM | 20.8 nM | 21.7 nM | 
17 | Cc1n[nH]c2c1CN(c1ccc(C(F)(F)F)c(S(N)(=O)=O)c1-c1nnn[nH]1)CC2 [Example 655] | 9.375 µM | 2.344 µM | 0.5859 µM | 0.225 nM | 0.985 nM | 7.8 nM | 
18 | NS(=O)(=O)c1cccc(-c2ccc(CNCCN3CCCC3)cc2)c1-c1nn[nH]n1 [Example 328, 4′-(((2-(pyrrolidin-1-yl)ethyl)amino)methyl)-2-(2H-tetrazol-5-yl)-[1,1′-biphenyl]-3-sulfonamide] |  |  |  |  |  |  | Klebsiella pneumoniae MITC95 [1, 13]: 125 µM; Escherichia coli MITC95 [2, 14]: 1.563 µM; Serratia marcescens MITC95 [3, 15]: 6.25 µM; IC50 [4, 16]: 473 nM; IC50 [5, 17]: 20.4 nM; IC50 [6, 18]: 325 nM
19 | NS(=O)(=O)c1c(C(F)(F)F)ccc([C@H]2CC[C@@H](C3=NCCN3)CC2)c1-c1nnn[nH]1 [Example 505, 3-(cis 4-(4,5-dihydro-1H-imidazol-2-yl)cyclohexyl)-2-(1H-tetrazol-5-yl)-6-(trifluoromethyl)benzenesulfonamide] | 12.5 µM | 6.25 µM | 6.25 µM |  |  | 22.2 nM | IC50 [4, 25]: 0.937 nM; IC50 [5]: 9.54 nM

— US9708336B2, “Metallo-beta-lactamase inhibitors” (priority 2014, dated 2017)
